Results: patent publication US9359322B2, “C-linked glucuronide of N-(4-hydroxybenzyl) retinone, analogs thereof, and methods of using the same to inhibit neoplastic cell growth” (Wisconsin Alumni Research Foundation, priority 2005, dated 2016)
Marks after values point to notes of the source that are not given here.

Tests used:
RARα = target: T1, RARα (Homo sapiens, UniProt P10276); experiment: Nuclear retinoid receptor binding assay; settings: 4-HBRCG up to 10^−4.5 M; data not shown
T1 sequence (P10276 1-462): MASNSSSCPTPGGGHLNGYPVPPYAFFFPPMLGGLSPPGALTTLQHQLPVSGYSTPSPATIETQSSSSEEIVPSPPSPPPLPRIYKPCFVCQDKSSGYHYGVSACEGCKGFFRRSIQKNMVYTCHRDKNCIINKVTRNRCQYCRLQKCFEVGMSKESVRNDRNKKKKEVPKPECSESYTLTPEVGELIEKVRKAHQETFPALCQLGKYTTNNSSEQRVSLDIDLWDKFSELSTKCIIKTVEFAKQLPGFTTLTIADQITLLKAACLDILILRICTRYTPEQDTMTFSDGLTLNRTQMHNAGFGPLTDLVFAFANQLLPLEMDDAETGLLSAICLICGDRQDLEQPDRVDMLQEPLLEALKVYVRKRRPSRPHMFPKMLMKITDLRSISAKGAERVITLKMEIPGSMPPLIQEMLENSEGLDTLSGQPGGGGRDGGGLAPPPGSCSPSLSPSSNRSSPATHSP

RARβ = target: T2, RARβ (Homo sapiens, UniProt P10826); experiment: Nuclear retinoid receptor binding assay, competition with [3H]all-trans RA; settings: FIG. 3A
T2 sequence (P10826 1-455): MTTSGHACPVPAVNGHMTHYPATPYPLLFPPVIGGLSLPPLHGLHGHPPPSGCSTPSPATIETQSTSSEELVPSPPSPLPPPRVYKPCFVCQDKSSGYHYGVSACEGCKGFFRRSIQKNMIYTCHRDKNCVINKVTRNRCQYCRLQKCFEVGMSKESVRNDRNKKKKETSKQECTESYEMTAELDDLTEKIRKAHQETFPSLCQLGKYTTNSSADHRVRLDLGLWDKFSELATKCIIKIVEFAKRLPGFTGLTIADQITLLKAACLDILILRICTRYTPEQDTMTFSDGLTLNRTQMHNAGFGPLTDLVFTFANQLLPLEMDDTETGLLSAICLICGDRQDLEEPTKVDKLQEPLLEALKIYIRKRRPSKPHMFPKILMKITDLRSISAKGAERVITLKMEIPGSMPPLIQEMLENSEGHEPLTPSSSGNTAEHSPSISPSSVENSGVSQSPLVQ
Method: (§1) Nuclear Retinoid Receptor Binding Assay. Competition of 3 and 7 and 4-HBRCGlucose with [^3H]-all-trans-RA (4.2-4.6 nM) for binding to RARβ and RARγ and with [^3H]-9-cis RA (1.9 nM) for binding to RXRγ was determined using an in vitro ligand binding assay.^41, 42 [^3H]-all-trans-RA (40.5 Ci/mmole) or [^3H]-9-cis-RA (69.4 Ci/mmole) was added to receptor-containing extracts in the absence and presence of increasing concentrations of competing ligands at 4° C. for 3 hr. A hydroxylapatite (HAP) assay was used to separate ligand bound to receptor from that free in solution, and the radioactivity associated with the HAP pellet was measured by scintillation counting.

RARγ = target: T3, RARγ (Homo sapiens, UniProt P13631); experiment: as above; settings: FIG. 3B
T3 sequence (P13631 1-454): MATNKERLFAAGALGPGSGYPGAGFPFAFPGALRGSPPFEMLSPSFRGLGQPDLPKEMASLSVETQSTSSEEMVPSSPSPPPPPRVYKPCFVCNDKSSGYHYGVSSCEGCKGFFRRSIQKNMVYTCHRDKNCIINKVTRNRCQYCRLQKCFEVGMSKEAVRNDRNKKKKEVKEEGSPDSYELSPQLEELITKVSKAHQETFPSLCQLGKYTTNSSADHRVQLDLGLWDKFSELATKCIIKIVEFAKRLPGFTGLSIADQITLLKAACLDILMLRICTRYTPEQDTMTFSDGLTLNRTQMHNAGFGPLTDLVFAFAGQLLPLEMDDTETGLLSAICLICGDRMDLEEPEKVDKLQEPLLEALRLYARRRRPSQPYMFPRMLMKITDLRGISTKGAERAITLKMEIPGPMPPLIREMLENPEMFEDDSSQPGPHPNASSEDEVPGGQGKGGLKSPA
Method: as §1

RXRγ = target: T4, RXRγ (Homo sapiens, UniProt P48443); experiment: Nuclear retinoid receptor binding assay, competition with [3H]9-cis RA; settings: 4-HBRCG up to 10^−4.5 M; data not shown
T4 sequence (P48443 1-463): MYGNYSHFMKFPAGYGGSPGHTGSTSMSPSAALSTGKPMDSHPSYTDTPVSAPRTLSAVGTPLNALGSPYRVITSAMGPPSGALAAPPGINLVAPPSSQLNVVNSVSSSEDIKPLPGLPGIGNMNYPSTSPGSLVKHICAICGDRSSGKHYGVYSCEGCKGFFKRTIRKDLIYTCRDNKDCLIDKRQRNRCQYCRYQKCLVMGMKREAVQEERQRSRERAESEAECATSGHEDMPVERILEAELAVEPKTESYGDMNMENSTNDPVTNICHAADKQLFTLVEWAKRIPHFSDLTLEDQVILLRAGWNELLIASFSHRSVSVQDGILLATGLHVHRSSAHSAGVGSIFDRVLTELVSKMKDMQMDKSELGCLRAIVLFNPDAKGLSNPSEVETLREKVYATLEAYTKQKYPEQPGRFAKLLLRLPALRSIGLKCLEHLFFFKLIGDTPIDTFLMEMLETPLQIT
Method: as §1

[1] = tested on: MCF-7 human breast cancer cells; experiment: Growth inhibition of MCF-7 human breast cancer cells; format: cell-based; settings: 10^−5 M, 8-day period
Method: Inhibition of MCF-7 human breast cancer cell growth over an 8-day period was used as a means to assess the activity of 4-HBRCG and the analog 4-HBRCGlucose.
Growth inhibition of MCF-7 human breast cancer cells. MCF-7 cells were obtained from the American Type Culture Collection, Manassas, Va. They were maintained in DMEM medium supplemented with 4 g/L glucose, 3.7 g/L sodium bicarbonate and 10% heat-inactivated fetal calf serum. Cells were passaged into 12-well plates, cultured for 24 hours, after which time they were dosed with vehicle (0.2% ethanol) or retinoids; medium was changed and fresh vehicle or retinoids were added daily. Cells were harvested and the number of live cells was assessed using fluorescein diacetate, which yields a fluorescent product upon cleavage by metabolically active cells. Using fluorescent microscopy, at least 200 cells/well were counted with a hemacytometer.

CYP26B1 mRNA = experiment: Induction of CYP26B1 mRNA in lung (Q-PCR); format: in vivo, rat; settings: at sacrifice, retinoid-fed rats, 2 mmol/kg diet; data not shown
[2] = tested on: DMBA-induced rat mammary tumor; experiment: DMBA-induced rat mammary tumor model, retinoid-containing diets; format: in vivo
Method: Preliminary evaluation of the mammary tumor chemotherapeutic activity of 4-HBRCG (7) was conducted, and its toxicity profile was also assessed. As previously described,^7, 12 tumor-bearing female rats (treated ca. 50 days earlier with 7,12-dimethylbenz(a)anthracene [DMBA]) were fed the control or retinoid-containing diets (RA (2), 4-HPR (3) or 4-HBRCG (7)) at 2 mmole/kg diet for 22 days.
(§2) Animal Studies: Mammary tumors were induced by intragastric intubation of 50-day old female Sprague-Dawley rats (Harlan Industries, Indianapolis, Ind.) with a single dose of 15 mg DMBA in 1.0 ml of sesame oil per rat. The rats were then maintained on a powdered Teklad 22/5 rodent chow diet (W) 8640 (Harlan Industries, Indianapolis, Ind.), and allowed food and water ad libitum. Four months later, rats which had developed palpable tumors were randomly assigned to the experimental groups (4 rats/group). The retinoid-treated groups were fed diets supplemented with 2 mmol/kg diet of atRA, 4-HPR, or 4-HBRCG, respectively. The retinoids were added to the diet in a vehicle consisting of 25 ml of ethanol: tricaprylin (1:4 v/v) plus 2% (w/v) of α-tocopherol as previously described.^9 This vehicle was also added to the control diet. The additives were blended into the chow diets using a Hobart food mixer. The diets were fed in stainless steel feeders designed with food hoppers. The food was replaced weekly with freshly prepared diets. Food consumption was determined once weekly, and from that the average daily consumption/rat was estimated. These diets were continuously fed for 22 days. Animals were also weighted weekly and monitored for general health status and signs of possible toxicity due to treatment.
(§3) Baseline measurement of initial tumor sizes, numbers and rat body weights were determined immediately before commencement of treatments, and final measurements were recorded just prior to sacrifice of the animals. Animals were palpated for tumors twice weekly and tumor diameters were measured weekly by a micrometer caliper. Tumor volumes were calculated using the formula [V= 4/3 πr^3] where r is one-half the mean of the sum of the largest diameter and the axis at right angle to it. All tumors as well as lungs, liver, kidney and femur were excised at the end of the experiment for chemical and histopathological evaluation. Blood samples were also taken from each animal for determination of plasma retinol and triglyceride levels.

[3] = Terminal plasma drug levels (plasma retinoid assay, HPLC); format: in vivo, rat; settings: female, Sprague-Dawley, rat, plasma, oral; day 22 of treatment; 2 mmol/kg diet; ± SEM; read-out: Plasma retinoid concentration (terminal plasma drug level)
Method: Plasma Retinoid Assay. To 500 μL of plasma was added 150 μL of ethanol containing 0.75 μg of internal standard (N-(4-chlorophenyl) retinamide). After mixing 30 sec., 500 μL of ethyl acetate was added followed by 1 min. of mixing and centrifugation for 5 minutes at 1000 rpm in an IEC CL centrifuge. The ethyl acetate layer was removed and syringe filtered through a 0.45 um filter. The ethyl acetate extraction was repeated two more times. The combined extracts were evaporated and the residue reconstituted in 100 μL of methanol. The methanol extract (20 μL) was analyzed by HPLC on a Beckman Instruments model 127 instrument equipped with a model 166 UV detector. Chromatography was done on a precolumn equipped 250×4.6 mm Bechman Ultrasphere ODS column with an 85% methanol/water mobile phase (both containing 10 mM ammonium acetate) flowing at 1 mL/min. Analysis for both internal standard and retinol was conducted at 350 nm and internal standard recoveries and retinol levels were determined by comparison with standard curves, with adjustment of the retinol level based on recovery. Recoveries of internal standard averaged ca. 78%. […] In the 4-HPR treated group, plasma levels of this retinoid were evaluated simultaneously in the same samples as above. In order to avoid interfering substances, plasma treatment retinoid levels for RA and 4-HBRCG were measured using the above system and a step gradient of 75% methanol for 15 min. followed by 85% methanol for 40 minutes.

[4] = Body weight change during retinoid feeding; format: in vivo, rat; settings: 2 mmol/kg diet
Method: as §2, §3

CYP26A1 mRNA = experiment: Induction of CYP26A1 mRNA in liver (Q-PCR); format: in vivo, rat; settings: at sacrifice, retinoid-fed rats, 2 mmol/kg diet; FIG. 4
[5] = Plasma triglyceride measurement; format: in vivo, rat; settings: 2 mmol/kg diet, 22 days; FIG. 2A
Method: Plasma Triglyceride Measurement. Bloods were drawn from anesthetized animals in the presence of EDTA as an anticoagulant, and the resulting plasma was used for the measurement of plasma “true” triglyceride levels using a kit from Sigma-Aldrich (Saint Louis, Mo.). Briefly, the total plasma triglyceride and glycerol concentrations were determined, and the glycerol component was subtracted from the total plasma triglyceride measurement to obtain the “true” serum triglyceride concentration.

[6] = Femur bone mineral content; format: in vivo, rat; settings: end of feeding study; FIG. 2B
From the text: Bone Mineral Content. The femur was disarticulated from the leg, and the adhering soft tissue was removed by dissection. Femurs were scanned using the Lunar PIXImus 2 system (Model X2608, General Electric using the LUNAR software version 1.45), and control measurements were made using the small animal quality control phantom. Femurs were scanned 5 times each with re-positioning at each measure. The average value of the bone mineral content (BMC) in grams for each animal is reported as one independent measure.

[7] = tested on: nuclear retinoic acid receptors (RAR); settings: cited from earlier work
[8] = number of individual tumors, 2 mmol/kg diet, 22 days

CC1=C(/C=C/C(C)=C/C=C/C(C)=C/C(=O)Cc2ccc(C[C@@H]3O[C@H](CO)[C@@H](O)[C@H](O)[C@H]3O)cc2)C(C)(C)CCC1 [4-HBRCGlucose, 2,6-Anhydro-7-deoxy-7-[4-(retinoylmethyl)-phenyl]-D-glycero-D-gulo-heptinol]
Binding to RARα (RARα): binds poorly | Binding to RARβ (RARβ): binds poorly | Binding to RARγ (RARγ): binds poorly | Competition for [3H]9-cis RA binding to RXR (RXRγ): binds poorly | State of MCF-7 cells at end of assay [1]: the majority of the MCF-7 cells were dead at the end of the assay | Effect on number of live MCF-7 cells ([1]; FIG. 5): reduction in the number of live cells

CC1=C(/C=C/C(C)=C/C=C/C(C)=C/C(=O)O)C(C)(C)CCC1 [Retinoic acid (2), all-trans retinoic acid]
Induction of CYP26B1 mRNA in lung (CYP26B1 mRNA): 46 fold above control | % Change in tumor volume from baseline ([2]; 2 mmol/kg diet for 22 days): −38 ^d % | Final tumor volume ([2]; 2 mmol/kg diet for 22 days, mean ± SEM): 0.05 ± 0.02 cm^3 | Initial tumor volumes ([2]; baseline before treatment, mean ± SEM): 0.08 ± 0.03 cm^3 | Complete regression (tumors that totally disappeared) [2, 8]: 1 | No effect [2, 8]: 1 | Partial regression (tumors with 25-75% decrease in volume) [2, 8]: 8 | New tumors ([2]; number of tumors, 2 mmol/kg diet, 22 days): 0 | concentration at 22 day [3]: 300 ± 100 ng/mL | Effect on normal body weight gain ([4]; feeding period): significant reduction in normal body weight gain | % Weight change ([4]; relative to baseline body weight over 22 days): +0.2 ^d % | Induction of CYP26A1 mRNA in liver (CYP26A1 mRNA): 67 fold above control | Effect on serum triglyceride concentration [5]: dramatically increased serum triglyceride concentration | Effect on femur bone mineral content vs control [6]: significant reduction in femur BMC

CC1=C(/C=C/C(C)=C/C=C/C(C)=C/C(=O)Nc2ccc(O[C@@H]3O[C@H](C(=O)O)[C@@H](O)[C@H](O)[C@H]3O)cc2)C(C)(C)CCC1 [compound 5, N-(4-hydroxyphenyl) retinamide-O-glucuronide]
Affinity for binding to nuclear RAR relative to RA [7]: low affinity relative to RA

CC1=C(/C=C/C(C)=C/C=C/C(C)=C/C(=O)Nc2ccc(CC3OC(C(=O)O)C(O)C(O)C3O)cc2)C(C)(C)CCC1 (stereo not shown) [compound 6, N-(4-hydroxyphenyl) retinamide-C-glucuronide]
Affinity for binding to nuclear RAR relative to RA [7]: low affinity relative to RA
